Assay results taken from patent publication US7776858B2, “Methods of treatment of chronic pain using eszopiclone” (Sepracor Inc., priority 2004, dated 2010).

What was measured:
[1] = test system: mice; test: Antimuscarinic activity in vivo: mydriasis; settings: maximum dose 100 mg/kg, p.o.
Description: (§1) Eszopiclone was evaluated for antimuscarinic activity in vivo.

[2] = test system: conscious dogs; test: Dose escalation safety study, cardiovascular and respiratory parameters after acute intravenous administration; settings: acute intravenous, 3, 5 and 12 mg/kg
Description: To establish the safety of eszopiclone, a dose escalation study was carried out. Cardiovascular and respiratory parameters were evaluated in conscious dogs following acute intravenous administration of (R)-, (S)- or racemic zopiclone at three doses (3, 5 and 12 mg/kg).

[3] = test system: benzodiazepine receptor complex; settings: cited from earlier work
[4] = test system: mice; test: Antagonism of oxotremorine induced salivation; assay type: in vivo; settings: doses up to 300 mg/kg, p.o.
Description: as §1

With CN1CCN(C(=O)OC2c3nccnc3C(=O)N2c2ccc(Cl)cn2)CC1 (racemic) [racemic zopiclone, zopiclone] the mydriasis [1] was “did not produce mydriasis”, the “Blood gases and blood chemistries (pH, pCO2, pO2, hematocrit, and lactate)” value [2] was “remained unaffected” and the “cardiotoxicity by electrocardiogram (ECG)” value [2] was “No evidence of cardiotoxicity”. For the same molecule, the “effect on blood pressure” value [2] was “dose dependent, transient decreases”, the “effect on heart rate” value [2] was “compensatory increase” and the “binding to the benzodiazepine receptor complex” value [3] was “binds to the benzodiazepine receptor complex”. The “antagonism of oxotremorine induced salivation” value [4] was “neither (R)-, (S)-, nor racemic zopiclone significantly antagonized”.
